Measured values as given in paper PMC6097915 (ACS chemical biology, 2018).
Converted amounts (≈) assume the structure as drawn. Ends that are not written are not given here.

Test system: WT MG1655 E. coli
Format: cell-based
Conditions: 6-hr period, aerated EZRDM medium, 30°C, by OD, successive two-fold dilutions in 96 well plates

Going from CC[C@H](C)[C@H](NC(=O)[C@H](CCCCN)NC(=O)[C@H](CCC(=O)O)NC(=O)[C@H](CCCCN)NC(=O)[C@H](CO)NC(=O)[C@H](CCCCN)NC(=O)[C@H](CCCNC(=N)N)NC(=O)[C@H](Cc1ccccc1)NC(=O)[C@H](Cc1ccccc1)NC(=O)[C@H](CC(=O)O)NC(=O)CNC(=O)[C@H](CC(C)C)NC(=O)[C@@H](N)CC(C)C)C(=O)NCC(=O)N[C@@H](CCCCN)C(=O)N[C@@H](CCC(=O)O)C(=O)N[C@@H](Cc1ccccc1)C(=O)N[C@@H](CCCCN)C(=O)N[C@@H](CCCNC(=N)N)C(=O)N[C@H](C(=O)N[C@H](C(=O)N[C@@H](CCC(N)=O)C(=O)N[C@@H](CCCNC(=N)N)C(=O)N[C@H](C(=O)N[C@@H](CCCCN)C(=O)N[C@@H](CC(=O)O)C(=O)N[C@@H](Cc1ccccc1)C(=O)N[C@@H](CC(C)C)C(=O)N[C@@H](CCCNC(=N)N)C(=O)N[C@@H](CC(N)=O)C(=O)N[C@@H](CC(C)C)C(=O)N[C@H](C(=O)N1CCC[C@H]1C(=O)N[C@@H](CCCNC(=N)N)C(=O)N[C@H](C(=O)N[C@@H](CCC(=O)O)C(=O)N[C@@H](CO)C(=O)O)[C@@H](C)O)C(C)C)[C@@H](C)CC)C(C)C)[C@@H](C)CC [LL-37] to “KWKLFKKIEKVGQNIRDGII-KAGPAVAVVGQATQIAK-NH2 [Cecropin A]”, the “MIC (minimum inhibitory concentration)” value falls from 4 µM (≈ 18 µg/mL) to 0.9 µM (4.4-fold).

In the case of KWKLFKKIGAVLKVL-NH2 [CM15], the “MIC (minimum inhibitory concentration)” value is reported as 5 µM.
